Like-named read-outs stand apart in the source and are kept apart here. Marks after values point to notes of the source that are not given here.
Key:
[1] = target: T1, NR2B containing NMDA receptors (Rattus norvegicus, UniProt P35439+Q00960); assay: NMDA antagonist potency by fluorimetric intracellular calcium measurement in rat cortical cell culture; assay type: cell-based; conditions: fluorimetric method, 40 μM NMDA
T1 construct: primary neocortical cell cultures derived from 17 day old Charles River rat embryos; endogenous in cells; host or cells: primary rat embryonic (E17) neocortical cell culture, 3-7 days in vitro
T1 sequence (Q00960 27-1482, other chains not shown): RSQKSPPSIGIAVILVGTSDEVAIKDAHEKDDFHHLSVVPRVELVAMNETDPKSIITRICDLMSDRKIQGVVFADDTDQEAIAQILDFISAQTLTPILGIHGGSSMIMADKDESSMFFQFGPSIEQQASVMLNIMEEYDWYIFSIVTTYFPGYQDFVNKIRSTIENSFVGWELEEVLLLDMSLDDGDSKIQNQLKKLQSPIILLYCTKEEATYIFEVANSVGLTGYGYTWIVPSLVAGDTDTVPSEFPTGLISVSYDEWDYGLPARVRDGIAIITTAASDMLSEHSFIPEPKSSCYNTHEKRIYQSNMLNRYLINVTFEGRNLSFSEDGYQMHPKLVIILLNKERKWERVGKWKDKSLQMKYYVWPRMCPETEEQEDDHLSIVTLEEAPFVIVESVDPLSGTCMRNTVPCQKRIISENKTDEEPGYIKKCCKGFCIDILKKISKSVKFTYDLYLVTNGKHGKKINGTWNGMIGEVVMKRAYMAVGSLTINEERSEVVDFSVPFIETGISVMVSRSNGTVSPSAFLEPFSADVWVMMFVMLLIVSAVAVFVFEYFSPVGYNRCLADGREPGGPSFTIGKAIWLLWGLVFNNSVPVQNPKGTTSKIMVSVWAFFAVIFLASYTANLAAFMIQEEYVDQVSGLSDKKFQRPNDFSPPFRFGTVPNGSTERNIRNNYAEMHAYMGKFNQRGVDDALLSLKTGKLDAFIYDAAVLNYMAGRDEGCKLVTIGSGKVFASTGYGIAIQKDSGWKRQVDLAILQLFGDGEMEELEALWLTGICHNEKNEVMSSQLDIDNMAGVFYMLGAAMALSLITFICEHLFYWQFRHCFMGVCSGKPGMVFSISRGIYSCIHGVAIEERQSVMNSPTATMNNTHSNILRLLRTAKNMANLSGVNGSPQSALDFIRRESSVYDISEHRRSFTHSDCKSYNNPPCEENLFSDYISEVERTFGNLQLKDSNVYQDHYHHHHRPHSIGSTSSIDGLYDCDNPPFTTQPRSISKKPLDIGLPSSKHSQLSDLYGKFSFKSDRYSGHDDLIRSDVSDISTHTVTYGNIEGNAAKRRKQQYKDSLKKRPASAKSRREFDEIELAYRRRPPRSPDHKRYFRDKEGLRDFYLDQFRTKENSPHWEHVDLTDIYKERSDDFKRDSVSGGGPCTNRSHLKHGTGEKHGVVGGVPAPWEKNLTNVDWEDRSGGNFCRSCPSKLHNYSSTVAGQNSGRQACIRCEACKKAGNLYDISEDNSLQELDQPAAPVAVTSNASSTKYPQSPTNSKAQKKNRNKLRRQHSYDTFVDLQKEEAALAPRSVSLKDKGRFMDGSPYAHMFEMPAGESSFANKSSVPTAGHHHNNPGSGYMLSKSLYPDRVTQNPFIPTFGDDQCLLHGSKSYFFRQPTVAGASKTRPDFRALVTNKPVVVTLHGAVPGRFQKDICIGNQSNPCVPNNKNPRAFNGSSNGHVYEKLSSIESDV
Method: Assessment of NMDA Antagonist Potency In Vitro by Measurement of Intracellular Calcium Concentration with a Plate Reader Fluorimeter in Rat Cortical Cell Culture
The intracellular calcium measurements were carried out on primary neocortical cell cultures derived from 17 day old Charles River rat embryos (for the details on the preparation of neocortical cell culture see Johnson, M. I.; Bunge, R. P. (1992): Primary-cell cultures of peripheral and central neurons and glia. In: Protocols for Neural Cell Culture, eds: Fedoroff, S.; Richardson A., The Humana Press Inc., 51-75. After isolation the cells were plated onto standard 96-well microplates and the cultures were maintained in an atmosphere of 95% air-5% CO2 at 37° C. until the calcium measurements.
The cultures were used for the intracellular calcium measurements after 3-7 days in vitro. The cells at this in vitro age are believed to express predominantly NR2B containing NMDA receptors [Mol. Pharmacol. 45, 846-853. (1994)]. Before the measurement the cells were loaded with a fluorescent Ca^2+-sensitive dye, Fluo-4/AM (2 μM). To stop the loading the cells were washed twice with the solution used for the measurement (140 mm NaCl, 5 mM KCl, 2 mM CaCl2, 5 mM HEPES, 5 mM HEPES-Na, 20 mM glucose, 10 mM glycine, pH=7.4). After washing the test compounds were added to the cells in the above solution (90 μl/well). Intracellular calcium measurements were carried out with a plate reader fluorimeter: elevation of Fluo-4-fluorescence and so, intracellular calcium concentration was induced by application of 40 μM NMDA. Inhibitory potency of the test compounds was assessed by measuring the reduction in the calcium elevation in the presence of different concentrations of the compounds.
(§1) Dose-response curves and IC50-values were calculated using data derived from at least three independent experiments. Inhibitory potency of a compound at a single concentration point was expressed as percent inhibition of the NMDA response. Sigmoidal concentration-inhibition curves were fit to the data and IC50 values were determined as the concentration that produces half of the maximal inhibition caused by the compound.

[2] = target: T2, recombinant NMDA receptors NR1/NR2A (Homo sapiens, UniProt Q05586+Q12879); assay: Inhibition of NMDA evoked cytosolic calcium elevations in transfected HEK293 cells; assay type: cell-based; conditions: for inhibition at 15 µM / inhibition at 10 µM: HEK293; for inhibition at 10 µM: read-out: NR1-3/NR2A % inhibition at 10 μM
T2 construct: expressed in transfected cells
T2 sequence (Q12879 23-1464, other chains not shown): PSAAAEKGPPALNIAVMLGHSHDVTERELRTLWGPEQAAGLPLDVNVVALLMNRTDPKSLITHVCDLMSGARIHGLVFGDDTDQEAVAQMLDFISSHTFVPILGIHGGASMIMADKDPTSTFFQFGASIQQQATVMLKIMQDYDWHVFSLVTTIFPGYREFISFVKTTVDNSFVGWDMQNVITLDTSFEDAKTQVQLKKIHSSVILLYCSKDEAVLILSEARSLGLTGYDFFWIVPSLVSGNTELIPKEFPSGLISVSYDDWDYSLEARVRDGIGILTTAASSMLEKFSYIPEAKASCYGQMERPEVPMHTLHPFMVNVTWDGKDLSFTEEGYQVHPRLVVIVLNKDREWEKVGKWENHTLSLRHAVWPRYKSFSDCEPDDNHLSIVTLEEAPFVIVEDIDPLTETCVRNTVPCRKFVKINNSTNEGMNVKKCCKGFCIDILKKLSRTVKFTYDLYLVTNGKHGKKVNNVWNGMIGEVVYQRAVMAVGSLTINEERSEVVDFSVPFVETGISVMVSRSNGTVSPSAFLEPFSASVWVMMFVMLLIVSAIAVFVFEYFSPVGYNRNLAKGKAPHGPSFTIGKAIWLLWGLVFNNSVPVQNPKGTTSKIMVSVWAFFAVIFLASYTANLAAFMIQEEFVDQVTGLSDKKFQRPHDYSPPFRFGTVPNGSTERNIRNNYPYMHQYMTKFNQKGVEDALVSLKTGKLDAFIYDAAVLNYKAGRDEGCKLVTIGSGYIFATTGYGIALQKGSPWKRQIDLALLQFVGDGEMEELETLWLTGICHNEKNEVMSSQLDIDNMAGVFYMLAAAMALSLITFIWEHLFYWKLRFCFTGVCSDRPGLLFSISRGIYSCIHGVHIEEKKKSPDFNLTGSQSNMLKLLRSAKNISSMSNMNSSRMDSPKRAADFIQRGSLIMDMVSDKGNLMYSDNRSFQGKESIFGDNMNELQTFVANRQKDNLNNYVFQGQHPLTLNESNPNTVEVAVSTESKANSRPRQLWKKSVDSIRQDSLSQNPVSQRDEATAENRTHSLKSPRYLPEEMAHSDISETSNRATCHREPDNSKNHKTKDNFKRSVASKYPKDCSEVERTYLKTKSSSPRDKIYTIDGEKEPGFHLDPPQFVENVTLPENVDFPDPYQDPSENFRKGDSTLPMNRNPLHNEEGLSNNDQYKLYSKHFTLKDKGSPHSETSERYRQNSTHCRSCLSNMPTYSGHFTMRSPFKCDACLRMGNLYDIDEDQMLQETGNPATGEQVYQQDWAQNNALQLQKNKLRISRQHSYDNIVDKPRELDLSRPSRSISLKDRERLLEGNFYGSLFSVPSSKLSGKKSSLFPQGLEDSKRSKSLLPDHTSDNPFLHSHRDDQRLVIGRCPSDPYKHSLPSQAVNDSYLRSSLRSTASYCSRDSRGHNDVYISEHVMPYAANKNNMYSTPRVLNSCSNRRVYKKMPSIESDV
Method: (1997); Neurochemistry International, 43, 19-29. (2003)]. […] Compounds were tested for their inhibitory action on NMDA evoked cytosolic calcium elevations in fluorescent calcium measurements. Studies were performed 48-72 h after addition of the inducing agent. Ketamine ([…] was also present during the induction in order to prevent cytotoxicity.
as §1

[3] = tested on: formalin response (licking/biting of the injected paw); assay: Mouse formalin test (second phase); assay type: in vivo; conditions: for ED50: Mus musculus, read-out: Formalin ED50
Method: Injection of diluted formalin into the hind paw of rats or mice is known to elicit a biphasic pain-related behaviour measured as time spent by licking/biting of the injured paw. The second phase is generally defined as pain related events detected in the 15-60 min. time interval ater formalin injection, with peak activity at around 30 min. It is known that NMDA receptors are involved in the second phase of response to formalin injection and this behavioural response is sensitive to blockade of NMDA receptors [Dickenson, A. and Besson J.-M. (Editors): Chapter 1, pp. 6-7: Animal models of Analgesia; and Chapter 8, pp. 180-183: Mechanism of Central Hypersensitivity: Excitatory Amino Acid Mechanisms and Their Control—In Pharmacology of Pain. Springer-Verlag (Berlin) 1997.] Therefore, we used the second phase of formalin test to characterize the efficacy of compounds in vivo. Inhibition of the second phase of response is considered to indicate an analgesic effect against chemically-induced persistent pain [Hunskaar, S., et al.: Formalin Test in Mice, a Useful Technique for Evaluating Mild Analgesics, Journal of Neuroscience Methods, 14 (1985) 69-76.]
Male albino Charles River NMRI mice (20-25 g) were used. Prior to the experiment any solid food was withdrawn for approx. 16 hours but the animals had free access to 20% glucose solution. The animals were allowed 1 hour acclimatization period in a glass cylinder (cc. 15 cm in diameter), then moved to an identical cylinder with a mirror placed behind to facilitate observation. The test substances were suspended in 5% tween-80 (10 ml per kg body weight) and administered orally by gavage 15 min before the formalin injection (20 μl of 1% formalin in 0.9% saline injected subcutaneously into the dorsal surface of the right hindpaw). The time spent by licking and biting of the injected paw was measured from 20 to 25 min. after the formalin injection.

[4] = tested on: spontaneous locomotor activity; assay: Spontaneous locomotor activity (LMA) in mice; assay type: in vivo, mouse; conditions: for locomotor stimulation relative to analgesic dose range (in words): mouse, in vivo
Method: Male NMRI mice weighing 20-22 g were used in the experiments.
Spontaneous locomotor activity was measured in a four-channel activity monitor. The apparatus consisted of acrylic cages. (43 cm×43 cm×32 cm) equipped with 2×16 pairs of photocells along all the bottom axis of the cage. An additional array of photocells (16 pairs) was placed along two opposite sides of the cage at the height of 10 cm in order to detect rearing responses.
Experimental groups consisted of 10 animals. Thirty minutes after the oral administration of the test compound or vehicle (tween-80), the animals were individually placed in one of four cages for one hour. Horizontal and vertical movements were determined as the number of beam interruptions for one hour at 15 min intervals.
Mean ±SE of horizontal activity data of each group was calculated then percentual changes compared to the control (vehicle-treated) group were determined. A compound was considered to cause locomotor stimulation when its effect exceeded 50% increase in beam interruptions. Consequently, doses defined as free of stimulatory action (UM) produced less than 50% increase.

locomotor activity = conditions: cited from earlier work; for effect on locomotor activity (in words): animal behavioural studies
[5] = read-out: Rat cortical cells (NR2B) appr. IC50
[6] = read-out: rat cortical cells IC50
[7] = oral, 15 min before formalin, licking time 20 to 25 min

Q: Which results are given for `O=C(c1nc2ccc(O)cc2[nH]1)N1CCC(=Cc2ccc(Cl)cc2)CC1` [Example 4, [4-(4-Chloro-benzylidene)-piperidine-1-yl]-(6-hydroxy-1H-benzoimidazol-2-yl)-methanone]?
A: IC50 [1, 5]: < 50 nM; inhibition at 15 µM [2]: < 30%

Q: With `O=C(CCN1CCC(Cc2ccc(F)cc2)CC1)c1ccc2[nH]c(=O)oc2c1` [EMD 95885] as the compound, how does the IC50 [1, 6] read?
A: 35 nM

Q: And the “NR1-3/NR2A % inhibition at 10 μM” value [2]?
A: 0.1%

Q: With `Cc1ccc(CC2(O)CCN(CCOc3ccc(O)cc3)CC2)cc1` [Co-101244, 1-[2-(4-hydroxyphenoxy)ethyl]-4-hydroxy-4-(4-methylbenzyl)piperidine] as the compound, how does the inhibition at 10 µM [2] read?
A: -8.7%

Q: With `C[C@]12N[C@H](Cc3ccccc31)c1ccccc12` [MK-801, (+)-5-Methyl-10,11-dihydro-5H-dibenzo[a,d]cyclohepten-5,10-imine] as the compound, how does the ED50 ([3]; po) read?
A: 0.15 mg/kg

Q: And the LMA % increase ([4]; dose 0.1 mg/kg oral)?
A: 114%

Q: What about the LMA % increase ([4]; dose 0.3 mg/kg oral) of the same compound?
A: 217%

Q: What does the source list for `C[C@@H]([C@@H](O)c1ccc(O)cc1)N1CCC(O)(c2ccccc2)CC1` [CP-101,606]?
A: NR1-3/NR2A % inhibition at 10 μM [2]: 2.5%; Formalin ED50 [3, 7]: >20* mg/kg; effect on locomotor activity (in words) (locomotor activity): no such effect was observed; dose up to which locomotor stimulating effect is lacking (locomotor activity; i.p.): ≤ 100 mg/kg; dose up to which locomotor stimulating effect is lacking (locomotor activity; s.c.): up to 56 mg/kg

Q: With “(benzyl-piperidin-1-yl)-(6-hydroxy-1H-benzoimidazol-2-yl)-methanone [“A”]” as the compound, how does the “Formalin ED50” value [3, 7] read?
A: 1.6 mg/kg

Q: What about the LMA % increase ([4]; dose 1.875 mg/kg oral) of the same compound?
A: 80%

Q: What about the “locomotor stimulation relative to analgesic dose range (in words)” value [4] of the same compound?
A: no separation between the doses causing analgesia and those stimulating locomotor activity

Q: With `COc1ccc(C=C2CCN(C(=O)c3nc4ccc(O)cc4[nH]3)CC2)cc1` [Example 5, (6-Hydroxy-1H-benzoimidazol-2-yl)-[4-(4-methoxy-benzylidene)-piperidine-1-yl]-methanone] as the compound, how does the IC50 [1, 5] read?
A: < 50 nM

Q: And the inhibition at 15 µM [2]?
A: 52%

Q: Which results are given for `O=c1[nH]c2ccc([S+]([O-])CCN3CCC(Cc4ccc(F)cc4)CC3)cc2o1` (stereo not drawn) [CI-1041, 6-{2-[4-(4-fluoro-benzyl)-piperidin-1-yl]-ethanesulfinyl}-3H benzooazol-2-one]?
A: inhibition at 10 µM [2]: 21%; ED50 [3, 7]: 2.4 mg/kg; LMA % increase ([4]; dose 10 mg/kg oral): 137%; locomotor stimulation relative to analgesic dose range (in words) [4]: no separation between the doses causing analgesia and those stimulating locomotor activity

Q: Which IC50 [1, 6] does the source give for `C[C@@H](CN1CCC(Cc2ccccc2)CC1)[C@@H](O)c1ccc(O)cc1` (relative stereo) [Ro 25-6981, R-(R*,S*)-1-(4-hydroxyphenyl)-2-methyl-3-[4-(phenylmethyl)piperidin-1-yl]-1-propanol] here?
A: 159 nM

Q: And the “NR1-3/NR2A % inhibition at 10 μM” value [2]?
A: 1.0%

Q: What about the “Formalin ED50” value [3, 7] of the same compound?
A: >20* mg/kg

Q: What about the “effect on locomotor activity (in words)” value (locomotor activity) of the same compound?
A: increase locomotor activity

Q: And the “effect on locomotor activity (in words)” value (locomotor activity; listed as Ro 256981)?
A: no such effect was observed

Q: What does the source list for `O=C(c1cc2ccc(O)cc2[nH]1)N1CCC(Cc2ccccc2)CC1` [“B”, (4-benzyl-piperidin-1-yl)-(6-hydroxy-1H-indol-2-yl)-methanone]?
A: ED50 [3, 7]: 1.7 mg/kg; LMA % increase ([4]; dose 1.875 mg/kg oral): 90%; locomotor stimulation relative to analgesic dose range (in words) [4]: no separation between the doses causing analgesia and those stimulating locomotor activity

Q: Which results are given for `O=C(c1nc2ccc(O)cc2[nH]1)N1CCC(=Cc2ccccc2)CC1` [Example 1, (4-Benzylidene-piperidine-1-yl)-(6-hydroxy-1H-benzoimidazol-2-yl)-methanone]?
A: IC50 [1, 5]: < 50 nM; inhibition at 15 µM [2]: 33%; ED50 [3, 7]: 2.6 mg/kg; LMA % increase ([4]; dose 15 mg/kg oral): 27%; LMA % increase ([4]; dose 30 mg/kg oral): 63%

Q: Which IC50 [1, 5] does the source give for `Cc1ccc(C=C2CCN(C(=O)c3nc4ccc(O)cc4[nH]3)CC2)cc1` [Example 2, (6-Hydroxy-1H-benzoimidazol-2-yl)-[4-(4-methyl-benzylidene)-piperidine-1-yl]-methanone] here?
A: < 50 nM

Q: And the inhibition at 15 µM [2]?
A: 34%

Q: For `O=C(c1nc2ccc(O)cc2[nH]1)N1CCC(=Cc2ccc(F)cc2)CC1` [Example 3, [4-(4-Fluoro-benzylidene)-piperidine-1-yl]-(6-hydroxy-1H-benzoimidazol-2-yl)-methanone], which IC50 [1, 5] is on record?
A: < 50 nM

Q: What about the inhibition at 15 µM [2] of the same compound?
A: < 30%

Q: With `O=C(c1cc2ccc(O)cc2[nH]1)N1CCC(=Cc2ccccc2)CC1` [Example 6, (4-Benzylidene-piperidine-1-yl)-(6-hydroxy-1H-indol-2-yl)-methanone] as the compound, how does the IC50 [1, 5] read?
A: 50 to 500 nM

Q: What about the inhibition at 15 µM [2] of the same compound?
A: < 30%

Q: And the ED50 [3, 7]?
A: 0.43 mg/kg

Q: What about the LMA % increase ([4]; dose 3.75 mg/kg oral) of the same compound?
A: 0%

Q: What about the LMA % increase ([4]; dose 7.5 mg/kg oral) of the same compound?
A: 55%

Q: What about the LMA % increase ([4]; dose 15 mg/kg oral) of the same compound?
A: 69%

From patent US20080300276A1, “Heterocyclic Carboxylic Acide Amide Derivatives” (priority 2004, published 2008)
